According to the NIST ThermoML archive (doi:10.1021/je049721u):
Numbers after ± are expanded uncertainties.

Test: mn = molality of the nth substance listed, in mol/kg
Settings: 101.3 kPa, Liquid; for speed of sound: Pulse-echo method

[Ni+2].[O-][Cl+3]([O-])([O-])[O-].[O-][Cl+3]([O-])([O-])[O-] [nickel perchlorate] + CN(C)C=O
Settings	mass density, 283.15 K [kg/m3]	mass density, 293.15 K [kg/m3]	mass density, 298.15 K [kg/m3]	mass density, 303.15 K [kg/m3]	mass density, 313.15 K [kg/m3]	mass density, 323.15 K [kg/m3]	mass density, 333.15 K [kg/m3]	speed of sound, 298.15 K [m/s]
m1 = 0.027	–	–	–	–	–	–	–	1459.6 ± 1.4
m1 = 0.02709	963.872 ± 0.58	954.383 ± 0.58	949.635 ± 0.59	944.864 ± 0.59	935.312 ± 0.6	925.725 ± 0.6	916.07 ± 0.61	–
m1 = 0.0405	966.705 ± 0.58	957.208 ± 0.58	952.461 ± 0.59	947.7 ± 0.59	938.159 ± 0.59	928.568 ± 0.6	918.935 ± 0.61	1460.7 ± 1.4
m1 = 0.054	969.549 ± 0.58	960.073 ± 0.58	955.329 ± 0.58	950.578 ± 0.59	941.045 ± 0.59	931.471 ± 0.6	921.848 ± 0.61	1461.7 ± 1.4
m1 = 0.0681	972.55 ± 0.58	963.083 ± 0.58	958.342 ± 0.58	953.59 ± 0.59	944.072 ± 0.59	934.511 ± 0.6	924.9 ± 0.6	1462.9 ± 1.5
m1 = 0.08156	975.396 ± 0.58	965.94 ± 0.58	961.2 ± 0.58	956.46 ± 0.58	946.947 ± 0.59	937.4 ± 0.59	927.809 ± 0.6	1463.9 ± 1.5
m1 = 0.1073	980.845 ± 0.58	971.397 ± 0.58	966.666 ± 0.58	961.935 ± 0.58	952.463 ± 0.59	942.934 ± 0.59	933.366 ± 0.6	1466 ± 1.5
m1 = 0.1332	986.418 ± 0.58	976.985 ± 0.58	972.262 ± 0.58	967.533 ± 0.58	958.059 ± 0.59	948.552 ± 0.59	939.005 ± 0.6	1467.8 ± 1.5
m1 = 0.1592	992.026 ± 0.57	982.603 ± 0.58	977.888 ± 0.58	973.17 ± 0.58	963.711 ± 0.58	954.224 ± 0.59	944.695 ± 0.59	1470 ± 1.5
m1 = 0.1864	997.967 ± 0.57	988.557 ± 0.58	983.849 ± 0.58	979.136 ± 0.58	969.697 ± 0.58	960.23 ± 0.59	950.732 ± 0.59	1471.8 ± 1.5
m1 = 0.2118	1003.54 ± 0.58	994.141 ± 0.58	989.44 ± 0.58	984.736 ± 0.58	975.313 ± 0.58	965.882 ± 0.58	956.405 ± 0.59	1473.6 ± 1.5
m1 = 0.2613	1014.55 ± 0.59	1005.16 ± 0.58	1000.47 ± 0.58	995.784 ± 0.58	986.394 ± 0.58	976.988 ± 0.58	967.56 ± 0.58	1477.5 ± 1.5
